From ChEMBL document CHEMBL1127209, “Aromatic isosteres as conformational probes for an isoprenyl subunit: application to inhibitors of squalene synthase” (Bioorg Med Chem Lett, 1993)

T1: Squalene synthase (Rattus norvegicus, UniProt Q02769)
T1 sequence (Q02769 whole entry): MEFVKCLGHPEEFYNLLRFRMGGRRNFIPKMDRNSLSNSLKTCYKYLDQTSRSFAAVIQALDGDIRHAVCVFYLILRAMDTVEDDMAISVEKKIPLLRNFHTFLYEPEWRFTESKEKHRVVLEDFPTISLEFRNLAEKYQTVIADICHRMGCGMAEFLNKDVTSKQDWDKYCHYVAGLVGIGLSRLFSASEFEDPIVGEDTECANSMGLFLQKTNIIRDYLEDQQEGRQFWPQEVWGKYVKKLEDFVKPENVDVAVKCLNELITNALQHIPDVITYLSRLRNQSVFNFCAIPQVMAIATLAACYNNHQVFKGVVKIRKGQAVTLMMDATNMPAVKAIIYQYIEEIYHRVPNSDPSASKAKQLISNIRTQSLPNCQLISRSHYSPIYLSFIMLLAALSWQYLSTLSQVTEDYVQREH

B1: Squalene synthase (Rattus norvegicus), Q02769 (protein)
chain: MEFVKCLGHPEEFYNLLRFRMGGRRNFIPKMDRNSLSNSLKTCYKYLDQTSRSFAAVIQALDGDIRHAVCVFYLILRAMDTVEDDMAISVEKKIPLLRNFHTFLYEPEWRFTESKEKHRVVLEDFPTISLEFRNLAEKYQTVIADICHRMGCGMAEFLNKDVTSKQDWDKYCHYVAGLVGIGLSRLFSASEFEDPIVGEDTECANSMGLFLQKTNIIRDYLEDQQEGRQFWPQEVWGKYVKKLEDFVKPENVDVAVKCLNELITNALQHIPDVITYLSRLRNQSVFNFCAIPQVMAIATLAACYNNHQVFKGVVKIRKGQAVTLMMDATNMPAVKAIIYQYIEEIYHRVPNSDPSASKAKQLISNIRTQSLPNCQLISRSHYSPIYLSFIMLLAALSWQYLSTLSQVTEDYVQREH

biological target: T1, Squalene synthase; assay: Tested for inhibitory potency against rat liver microsomal squalene synthase; conditions: not given

| Molecule | Ki [nM] |
| --- | --- |
| CC(C)=CCC/C(C)=C\CC/C(C)=C/COCP(=O)(O)CP(=O)(O)O | 37 |

same assay, conditions: read-out: I50

| Molecule | IC50 [nM] |
| --- | --- |
| CC(C)=CCC/C(C)=C/c1ccc(COCP(=O)(O)CP(=O)(O)O)c(C)c1 | 13700 |
| CC(C)=CCC/C(C)=C\CC/C=C/COCP(=O)(O)CP(=O)(O)O | 165 |
| CC(C)=CCC/C(C)=C/c1ccc(COCP(=O)(O)CP(=O)(O)O)s1 | 964 |
| CC(C)=CCC/C(C)=C/c1cccc(COCP(=O)(O)CP(=O)(O)O)c1 | 5100 |
| CC(C)=CCC/C(C)=C/c1cc(C)c(COCP(=O)(O)CP(=O)(O)O)o1 | 41300 |
| CC(C)=CCC/C(C)=C/c1ccc(COCP(=O)(O)CP(=O)(O)O)cc1 | 125 |
| CC(C)=CCC/C(C)=C\CC/C(C)=C/COCP(=O)(O)CP(=O)(O)O | 50 |
| CC(C)=CCC/C(C)=C/c1cc(C)c(COCP(=O)(O)CP(=O)(O)O)s1 | 5300 |

substrate: CC(C)=CCC/C(C)=C\CC/C(C)=C/COCP(=O)(O)CP(=O)(O)O; assay: Tested for Michaelis-Menten constant for squalene synthase; conditions: not given

| Molecule | Km [µM] |
| --- | --- |
| B1 | 12.7 |
